{
  "source": "patent US20200002432A1",
  "about": "“ANTI-CD98 ANTIBODIES AND ANTIBODY DRUG CONJUGATES” (AbbVie Inc., priority 2016, published 2020)",
  "key": {"[1]": {"test_system": "A549-FP3 human lung carcinoma xenograft", "experiment": "A549 FP3 xenograft tumor growth inhibition in SCID-bg mice, with or without docetaxel", "assay_type": "in vivo, mouse", "details": "QD × 1, Ab095 8 mg/kg IP, docetaxel 7.5 mg/kg IV, ADC 10 mg/kg IP, combination 7.5 + 10", "description": "(§1) The cell lines A549 and NCI-H460 were obtained from the American Type Culture Collection (ATCC, Manassas, Va.). A549 cell line was further passaged in mice as flank xenograft to improve xenograft tumor growth, resulting in the A549-FP3 line. Cells were cultured as monolayers in RPMI-1640 culture media (Invitrogen, Carlsbad, Calif.) supplemented with 10% Fetal Bovine Serum (FBS, Hyclone, Logan, Utah). To generate xenografts, 5×10^6 (A549 and NCI-H460) viable cells were inoculated subcutaneously into the right flank of immune deficient female SCID-bg mice (Charles River Laboratories, Wilmington, Mass.). The injection volume was 0.2 ml and composed of 1:1 S-MEM:Matrigel Matrigel (BD, Franklin Lakes, N.J.). Tumors were size matched at approximately 223 mm^3. Antibodies, conjugates, and docetaxel were formulated in 0.9% sodium chloride for injection. […] Therapy began within 24 hours after size matching of the tumors. Mice weighed approximately 21 g at the onset of therapy. Tumor volume was estimated two to three times weekly. Measurements of the length (L) and width (W) of the tumor were taken via electronic caliper and the volume was calculated according to the following equation: V=L×W^2/2. […] Eight mice were housed per cage. […] Tumor growth inhibition is calculated by 100*(1−Tv/Cv) where Tv and Cv are the mean tumor volumes of the treated and control groups, respectively."}, "[2]": {"test_system": "NCI-H460 human lung carcinoma xenograft", "experiment": "NCI-H460 xenograft tumor growth inhibition in SCID-bg mice, with or without docetaxel", "assay_type": "in vivo, mouse", "details": "QD × 1, Ab095 8 mg/kg IP, docetaxel 7.5 mg/kg IV, ADC 10 mg/kg IP, combination 7.5 + 10", "description": "as §1"}},
  "data": [
    {"smiles": "CC(=O)O[C@@]12CO[C@@H]1C[C@H](O)[C@@]1(C)C(=O)[C@H](O)C3=C(C)[C@@H](OC(=O)[C@H](O)[C@@H](NC(=O)OC(C)(C)C)c4ccccc4)C[C@@](O)([C@@H](OC(=O)c4ccccc4)[C@H]21)C3(C)C", "note": "[Docetaxel, reference compound]", "values": [
      {"measurement": "TGD (%)", "setting": "[1]", "result": 80, "unit": "%"},
      {"measurement": "TGImax (%)", "setting": "[1]", "result": 62, "unit": "%"},
      {"measurement": "TGD (%)", "setting": "[2]", "result": 30, "unit": "%"},
      {"measurement": "TGImax (%)", "setting": "[2]", "result": 35, "unit": "%"}
    ]}
  ]
}
